In patent publication US6875452B1, “Inhibitor and preservative formulation” (priority 1997, dated 2005):

What was measured:
[1] = test system: Salmonella enteriditis 4444; assay: Viable count of S. enteriditis in TSB with plant oils, benzoic acid, methyl paraben and combinations (Experimental Procedure 1); format: cell-based; settings: for log10 of the mean count: 37° C.; for inhibition of S. enteriditis in words: over the 48 hr period
Procedure: (§1) Listeria monocytogenes 11994 and Salmonella […] 4444 were purchased from the National Collection Type Culture, Porton Down, Wiltshire, UK. Each was stored in the long term in glycerol at -20° C., in the medium term on Tryptone Soya Agar (TSA) slopes and in the short term on TSA plates. All agar and broth (Tryptone Soya Broth) was purchased from Oxoid-Unipath Limited, Basingstoke, UK. […] Plates were incubated at 37° C. and colonies counted as colony forming units per ml (cfu/ml). […] Oils of fennel and […] used at 0.2% and whilst oil of basil was originally used for comparative purposes at 0.2% it was later used at 0.02%. […] Several factors were considered when choosing these concentrations. […] Triplicate plates were prepared for each dilution and the mean count of three plates was determined. […] Each experiment was performed on three separate occasions. It is the mean count from three separate experiments and the corresponding standard error of the mean which are shown in the results section. Two-tailed paired student's t-test was used to analyse inhibition caused by a combination compared to the corresponding control. Differences were judged to be statistically significant when p<0.05.

[2] = test system: Listeria monocytogenes 11994; assay: Viable count of L. monocytogenes in TSB with plant oils, benzoic acid, methyl paraben and combinations (Experimental Procedure 1); format: cell-based; settings: for log10 of the mean count: 37° C.; for inhibition of L. monocytogenes in words: over the 48 hr period
Procedure: as §1

[3] = test system: mice; settings: high doses, literature [22,23]; cited from earlier work
[4] = test system: Salmonella enteriditis 4444; assay: Viable count of S. enteriditis in TSB with trans-anethole, fenchone, estragole, methyl paraben and combinations (Experimental Procedure 2); format: cell-based; settings: for inhibition of S. enteriditis in words: 0.1%, over the 48 hr period; for log10 of the mean count ± 1 SEM: 37° C., preservatives at 0.1%
Procedure: (§2) Listeria monocytogenes 11994 and Salmonella enteriditis 4444 were purchased from the National Collection Type Culture, Porton Down, Wiltshire, UK. Each was stored in the long term in glycerol at −20° C., in the medium term on Tryptone Soya Agar (TSA) slopes and in the short term on TSA plates. All agar and broth (Tryptone Soya Broth) was purchased from Oxoid-Unipath Limited, Basingstoke, UK.
(§3) Triplicate plates were prepared for each dilution and the mean count of three plates was determined. […] Each experiment was performed on three separate occasions.
(§4) Two-tailed paired student's t-test was used to analyse inhibition caused by a combination compared to the corresponding control. Differences were judged to be statistically significant when p<0.05.
(§5) This definition is also in agreement with Mims et al.
(§6) Corresponding controls were also prepared, thus 10 μl of each overnight culture was added to the appropriate broth only. All tubes were incubated at 37° C. 1 ml samples were removed from each test and control after vortexing at 0 hrs, 1 hr, 4 hrs, 8 hrs, 24 hrs and 48 hrs and serially diluted in 0.01M PBS. 100 μl from each dilution was placed on an agar plate and spread across the surface. Plates were incubated at 37° C. and colonies counted as colony forming units per ml (cfu/ml). As ethanol was used to prepare stock solutions of methyl paraben a diluent control was used where ethanol was added to each culture medium. […] Due to the limitation of the serial dilution technique it was not possible to count cfu less than 10/ml.
(§7) Furthermore to make valid comparison about the activity of each combination against each microbe it was necessary to use just one concentration of each component with the combination. […] In addition, methyl paraben cannot be used in food in excess of 0.1% [15].

[5] = test system: Listeria monocytogenes 11994; assay: Viable count of L. monocytogenes in TSB with trans-anethole, fenchone, estragole, methyl paraben and combinations (Experimental Procedure 2); format: cell-based; settings: for log10 of the mean count ± 1 SEM: 37° C., preservatives at 0.1%; for inhibition of L. monocytogenes in words: 0.1%, over 48 hrs
Procedure: as §2, §3, §4, §5, §6, §7

[6] = literature [20,21]; cited from earlier work
[7] = 0 hrs (starting count, same as control)

Compound	log10 of the mean count [1, 7]	log10 of the mean count ([1]; 1 hr)	log10 of the mean count ([1]; 4 hrs)	log10 of the mean count ([1]; 8 hrs)	log10 of the mean count ([1]; 24 hrs)	log10 of the mean count ([1]; 48 hrs)	inhibition of S. enteriditis in words [1]	log10 of the mean count [2, 7]	inhibition of S. enteriditis in words [4]	log10 of the mean count ± 1 SEM ([4]; 1 hr)	log10 of the mean count ± 1 SEM ([4]; 4 hrs)	log10 of the mean count ± 1 SEM ([4]; 8 hrs)	log10 of the mean count ± 1 SEM ([4]; 24 hrs)	log10 of the mean count ± 1 SEM ([4]; 48 hrs)	log10 of the mean count ± 1 SEM ([5]; 1 hr)	log10 of the mean count ± 1 SEM ([5]; 4 hrs)	log10 of the mean count ± 1 SEM ([5]; 8 hrs)	log10 of the mean count ± 1 SEM ([5]; 24 hrs)	log10 of the mean count ± 1 SEM ([5]; 48 hrs)	inhibition of L. monocytogenes in words [5]	further results
O=C(O)c1ccccc1 [BA, benzoic acid]	6.08 ± 0.03 log10 cfu/ml	6.02 ± 0.04 log10 cfu/ml	6.46 ± 0.01 log10 cfu/ml	7.32 ± 0.08 log10 cfu/ml	8.67 ± 0.14 log10 cfu/ml	8.52 ± 0.03 log10 cfu/ml	little inhibition	6.45 ± 0.02 log10 cfu/ml	–	–	–	–	–	–	–	–	–	–	–	–	log10 of the mean count ([2]; 1 hr): 6.33 ± 0.11 log10 cfu/ml; log10 of the mean count ([2]; 4 hrs): 7.22 ± 0.04 log10 cfu/ml; log10 of the mean count ([2]; 8 hrs): 8.16 ± 0.06 log10 cfu/ml; log10 of the mean count ([2]; 24 hrs): 9.09 ± 0.03 log10 cfu/ml; log10 of the mean count ([2]; 48 hrs): 9.0 ± 0.06 log10 cfu/ml; inhibition of L. monocytogenes in words [2]: relatively weakly inhibitory
C=CCc1ccc(OC)cc1 [Estragole, estragole (4-allylanisole)]	–	–	–	–	–	–	–	–	two most single inhibitory preservatives	2.2 ± 0.05Δ log10 cfu/ml	1.6 ± 0.08Δ log10 cfu/ml	1.5 ± 0.08Δ log10 cfu/ml	4.3 ± 0.03Δ log10 cfu/ml	6.9 ± 0.03Δ log10 cfu/ml	5.9 ± 0.05 log10 cfu/ml	5.6 ± 0.07Δ log10 cfu/ml	5.5 ± 0.06Δ log10 cfu/ml	4.9 ± 0.08Δ log10 cfu/ml	4.7 ± 0.09Δ log10 cfu/ml	–	carcinogenicity in words [3]: carcinogenic in high doses in mice; growth inhibited by ([4]; 4 hrs and 8 hrs): more than 5.0 log10; inhibition ([4]; 48 hrs): 2.1 log10; inhibition of growth ([5]; after 24 hrs): more than 4 log10
CC12CCC(C1)C(C)(C)C2=O (stereo not shown) [Fenchone, fenchone]	–	–	–	–	–	–	–	–	little or no inhibition	5.8 ± 0.02 log10 cfu/ml	6.4 ± 0.04 log10 cfu/ml	6.9 ± 0.04Δ log10 cfu/ml	8.6 ± 0.09Δ log10 cfu/ml	8.5 ± 0.01Δ log10 cfu/ml	2.7 ± 0.2Δ log10 cfu/ml	1.9 ± 0.08Δ log10 cfu/ml	<1.0Δ log10 cfu/ml	<0.1Δ log10 cfu/ml	<1.0Δ log10 cfu/ml	most inhibitory single component	count (cells undetectable) ([5]; 8 hrs and above): < 10 cfu/ml; toxicity in words [6]: non-toxic
COC(=O)c1ccc(O)cc1 [MP, methyl paraben]	6.08 ± 0.03 log10 cfu/ml	6.04 ± 0.05 log10 cfu/ml	6.32 ± 0.03 log10 cfu/ml	6.63 ± 0.03 log10 cfu/ml	8.36 ± 0.05 log10 cfu/ml	8.45 ± 0.11 log10 cfu/ml	little inhibition	6.45 ± 0.02 log10 cfu/ml	little or no inhibition	6.0 ± 0.01 log10 cfu/ml	6.3 ± 0.01 log10 cfu/ml	6.6 ± 0.06Δ log10 cfu/ml	8.5 ± 0.04Δ log10 cfu/ml	8.6 ± 0.01Δ log10 cfu/ml	6.5 ± 0.01 log10 cfu/ml	6.9 ± 0.01 log10 cfu/ml	7.7 ± 0.01 log10 cfu/ml	9.3 ± 0.01 log10 cfu/ml	9.2 ± 0.01 log10 cfu/ml	little or no inhibitory properties	log10 of the mean count ([2]; 1 hr): 6.49 ± 0.01 log10 cfu/ml; log10 of the mean count ([2]; 4 hrs): 7.02 ± 0.02 log10 cfu/ml; log10 of the mean count ([2]; 8 hrs): 7.86 ± 0.05 log10 cfu/ml; log10 of the mean count ([2]; 24 hrs): 9.27 ± 0.02 log10 cfu/ml; log10 of the mean count ([2]; 48 hrs): 9.24 ± 0.02 log10 cfu/ml; inhibition of L. monocytogenes in words [2]: relatively weakly inhibitory
C/C=C/c1ccc(OC)cc1 [Trans-anethole]	–	–	–	–	–	–	–	–	–	–	–	–	–	–	6.1 ± 0.04 log10 cfu/ml	6.3 ± 0.1 log10 cfu/ml	6.7 ± 0.2 log10 cfu/ml	9.0 ± 0.1 log10 cfu/ml	9.0 ± 0.01 log10 cfu/ml	little or no inhibitory properties	toxicity in words [6]: non-toxic
